The target in data set [1] is T1, PI3Kγ (p120γ) (Homo sapiens, UniProt P48736).
T1 construct: His (N); made in house; host or cells: Baculovirus-infected Sf9 cells
Kind of data set: PI3Kγ ADP-Glo assay. It is filed as biochemical. To be noted: 20 μM PIP2, 10 μM ATP, 90 minutes. The method, then: (d) an In Vitro Assay which Determines the Ability of a Test Compound to Inhibit PI3Kγ.
(§1) Activity of PI3Kγ was measured using ADP-Glo assay from Promega. PI3Kγ, N-terminal His-tagged recombinant full-length human p120γ (GenBank, Accession No. AF327656) was expressed in a Baculovirus infected Sf9 cell expression system. The ADP-Glo assay was performed to measure the amount of ADP generated from ATP hydrolysis coupled with PIP2 phosphorylation by the purified recombinant PI3Kγ […]. PI3Kγ was incubated with 20 μM PIP2 substrate in the reaction buffer (10 mM Tris-HCl, pH 7.5, 50 mM NaCl, 5 mM MgCl2, 10 μM ATP and 0.5% DMSO) for 90 minutes at room temperature. The ADP generated was then detected by ADP-Glo assay from Promega, a luminescent ADP detection assay. The ADP-Glo assay is performed in two steps; first, after the kinase reaction, ADP-Glo Reagent is added to terminate the kinase reaction and deplete the remaining ATP. Second, the Kinase Detection Reagent is added to simultaneously convert ADP to ATP and allow the newly synthesized ATP to be measured using a luciferase/luciferin reaction.
For orientation: In ADP-Glo the light output rises with the ADP produced.

For data set [2], the target named is T2, PI3Kδ (p110δ/p85α) (Homo sapiens, UniProt O00329).
T2 construct: GST (N); made in house; host or cells: Baculovirus-infected Sf9 cells
T2 sequence (O00329 whole entry): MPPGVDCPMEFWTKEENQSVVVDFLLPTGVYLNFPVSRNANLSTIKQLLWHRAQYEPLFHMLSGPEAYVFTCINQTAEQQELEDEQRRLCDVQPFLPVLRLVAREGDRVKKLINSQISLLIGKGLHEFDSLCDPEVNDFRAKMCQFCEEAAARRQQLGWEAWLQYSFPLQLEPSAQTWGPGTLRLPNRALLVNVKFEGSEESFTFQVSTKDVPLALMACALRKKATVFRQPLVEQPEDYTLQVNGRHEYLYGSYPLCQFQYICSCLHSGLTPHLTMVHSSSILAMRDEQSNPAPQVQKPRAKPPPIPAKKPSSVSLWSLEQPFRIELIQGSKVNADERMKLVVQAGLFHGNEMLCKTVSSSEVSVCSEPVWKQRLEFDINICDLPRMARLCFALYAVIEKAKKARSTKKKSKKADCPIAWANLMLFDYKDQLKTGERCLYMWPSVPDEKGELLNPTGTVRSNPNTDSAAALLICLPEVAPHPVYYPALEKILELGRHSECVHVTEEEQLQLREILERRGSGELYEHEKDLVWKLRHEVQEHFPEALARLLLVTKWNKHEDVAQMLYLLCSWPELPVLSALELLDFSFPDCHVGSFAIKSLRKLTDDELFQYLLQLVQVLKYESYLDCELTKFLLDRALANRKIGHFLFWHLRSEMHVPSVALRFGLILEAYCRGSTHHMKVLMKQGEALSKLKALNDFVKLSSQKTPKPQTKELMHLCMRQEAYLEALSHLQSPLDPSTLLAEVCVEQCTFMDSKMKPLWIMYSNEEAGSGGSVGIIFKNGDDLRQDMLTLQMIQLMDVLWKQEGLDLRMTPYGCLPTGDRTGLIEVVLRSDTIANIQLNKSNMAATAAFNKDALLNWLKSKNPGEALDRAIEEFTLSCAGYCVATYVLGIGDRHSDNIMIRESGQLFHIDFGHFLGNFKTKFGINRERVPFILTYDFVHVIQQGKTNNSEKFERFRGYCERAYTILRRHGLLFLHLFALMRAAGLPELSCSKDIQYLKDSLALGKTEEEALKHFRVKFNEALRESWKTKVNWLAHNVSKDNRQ
T2 sequence (P27986 whole entry partner): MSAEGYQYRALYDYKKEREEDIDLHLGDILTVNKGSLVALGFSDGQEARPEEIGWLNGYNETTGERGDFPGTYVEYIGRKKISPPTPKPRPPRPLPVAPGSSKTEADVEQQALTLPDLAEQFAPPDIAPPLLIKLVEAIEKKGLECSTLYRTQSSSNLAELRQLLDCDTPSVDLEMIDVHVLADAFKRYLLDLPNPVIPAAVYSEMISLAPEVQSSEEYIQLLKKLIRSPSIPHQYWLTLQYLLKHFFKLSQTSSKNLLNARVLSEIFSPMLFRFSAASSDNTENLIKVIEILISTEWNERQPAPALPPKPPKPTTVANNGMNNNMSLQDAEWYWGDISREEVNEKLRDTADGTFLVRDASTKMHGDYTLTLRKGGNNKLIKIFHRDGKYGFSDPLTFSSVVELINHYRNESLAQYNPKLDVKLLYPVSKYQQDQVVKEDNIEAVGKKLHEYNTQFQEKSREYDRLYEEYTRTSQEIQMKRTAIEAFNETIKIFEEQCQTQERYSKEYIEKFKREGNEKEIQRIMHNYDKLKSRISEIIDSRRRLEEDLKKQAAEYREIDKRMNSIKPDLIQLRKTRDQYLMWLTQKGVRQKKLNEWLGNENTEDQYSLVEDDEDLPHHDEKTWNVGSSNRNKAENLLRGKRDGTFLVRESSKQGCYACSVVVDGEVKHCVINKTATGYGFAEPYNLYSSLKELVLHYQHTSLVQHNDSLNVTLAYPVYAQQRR
Kind of data set: PI3Kδ ADP-Glo assay. Type of data set: biochemical. To be noted: 20 μM PIP2, 10 μM ATP, 90 minutes. The procedure:
(c) an In Vitro Assay which Determines the Ability of a Test Compound to Inhibit PI3Kδ.
as §1, with “PI3Kδ” for “PI3Kγ”, “PI3Kδ, a complex of” for “PI3Kγ,”, “GST-tagged” for “His-tagged”, “p110δ” for “p120γ”, “NM_005026) and untagged recombinant full length human p85α (GenBank Accession No. XM—043865) were co-expressed” for “AF327656) was expressed”

Data set [3] concerns LN-Cap. The data set can be described thus: Cell proliferation assay (CellTiter-Glo). It is filed as cell-based. To be noted: Homo sapiens, LNCaP; Prostate; 72 hours, 0.5% fetal bovine serum; read-out: antiproliferative activity IC50, LN-Cap. The gist of the method: (§2)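 Inhibition of growth was assessed as loss of ATP signal; cultures at 5,000–10,000 cells per well received serial compound doses for 72 h with 0.5% FBS, then were lysed for 30 min before luminescence reading.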

For data set [4], the system named is OVCAR-5. Kind of data set: Cell proliferation assay (CellTiter-Glo). Type of data set: cell-based. To be noted: Homo sapiens, Ovarian, 72 hours, 0.5% fetal bovine serum, read-out: antiproliferative activity IC50, OVCAR-5. The gist of the method: as §2
Data set [5] concerns PC-3. The data set can be described thus: Cell proliferation assay (CellTiter-Glo). It is filed as cell-based. To be noted: Homo sapiens, Prostate, 72 hours, 0.5% fetal bovine serum, read-out: antiproliferative activity IC50, PC-3. In outline: as §2

Structures are written as SMILES. Where only a bound is given, the exact number is not on record here.

T1 sequence (P48736 whole entry): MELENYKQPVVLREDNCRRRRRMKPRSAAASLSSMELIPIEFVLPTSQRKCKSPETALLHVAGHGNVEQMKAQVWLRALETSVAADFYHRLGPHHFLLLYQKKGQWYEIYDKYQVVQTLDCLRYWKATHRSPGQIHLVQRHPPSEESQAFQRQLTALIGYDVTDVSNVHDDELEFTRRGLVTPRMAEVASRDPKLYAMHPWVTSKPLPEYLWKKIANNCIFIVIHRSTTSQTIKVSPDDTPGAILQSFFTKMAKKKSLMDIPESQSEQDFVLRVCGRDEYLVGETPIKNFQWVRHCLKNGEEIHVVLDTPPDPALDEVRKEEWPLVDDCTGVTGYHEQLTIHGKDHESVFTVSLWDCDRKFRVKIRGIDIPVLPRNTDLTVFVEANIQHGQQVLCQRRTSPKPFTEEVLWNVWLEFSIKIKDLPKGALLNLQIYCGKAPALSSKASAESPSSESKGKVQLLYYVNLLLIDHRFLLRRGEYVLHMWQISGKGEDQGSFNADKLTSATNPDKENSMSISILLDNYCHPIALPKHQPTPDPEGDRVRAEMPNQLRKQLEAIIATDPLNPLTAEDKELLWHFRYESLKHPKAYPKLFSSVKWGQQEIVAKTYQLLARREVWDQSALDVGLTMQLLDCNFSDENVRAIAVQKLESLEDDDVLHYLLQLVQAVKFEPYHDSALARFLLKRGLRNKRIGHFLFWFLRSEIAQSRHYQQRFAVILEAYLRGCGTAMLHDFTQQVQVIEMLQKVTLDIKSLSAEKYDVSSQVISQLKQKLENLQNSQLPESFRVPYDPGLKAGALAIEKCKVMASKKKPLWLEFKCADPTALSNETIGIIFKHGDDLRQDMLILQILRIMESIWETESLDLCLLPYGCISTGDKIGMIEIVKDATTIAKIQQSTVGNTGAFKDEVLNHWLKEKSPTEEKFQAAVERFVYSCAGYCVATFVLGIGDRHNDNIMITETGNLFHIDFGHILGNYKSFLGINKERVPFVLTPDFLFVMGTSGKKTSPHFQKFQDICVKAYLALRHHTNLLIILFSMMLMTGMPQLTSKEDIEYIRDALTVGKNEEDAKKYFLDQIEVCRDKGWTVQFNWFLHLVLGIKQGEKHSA

Broadly, the IC50 is the midpoint of a concentration-inhibition curve. As for `CNc1ccc(-c2nc(N3CCOCC3)c3sc(CN(C)c4ncc(C(=O)NO)cn4)cc3n2)cn1` [Compound 111, N-Hydroxy-2-(methyl((2-(6-(methylamino)pyridin-3-yl)-4-morpholinothieno[3,2-d]pyrimidin-6-yl)methyl)amino)pyrimidine-5-carboxamide], the 50% inhibitory concentration (IC50) in data set [1] is 100 to 1000 nM; in data set [2], under 100 nM.
Regarding `CN(Cc1cc2nc(-c3ccc(N)cc3)nc(N3CCOCC3)c2s1)c1ncc(C(=O)NO)cn1` [Compound 150, 2-(((2-(4-aminophenyl)-4-morpholinothieno[3,2-d]pyrimidin-6-yl)methyl)(methyl)amino)-N-hydroxypyrimidine-5-carboxamide], the IC50 is under 10 nM in data set [3], under 10 nM in data set [4] and 10 to 100 nM in data set [5].
Broadly, the melting point is the temperature of the solid-liquid transition. Turning to `CN(Cc1cc2nc(-c3cccc4[nH]ncc34)nc(N3CCOCC3)c2s1)c1ncc(C(=O)NO)cn1` [Compound 54, 2-(((2-(1H-indazol-4-yl)-4-morpholinothieno[3,2-d]pyrimidin-6-yl)methyl)(methyl)amino)-N-hydroxypyrimidine-5-carboxamide], the melting point was in the range of 197 to 200 °C. Further, in data set [1], the 50% inhibitory concentration (IC50) was under 100 nM. In data set [2], the IC50 is under 100 nM.
